Assays:
PDE4B1 = molecular target: T1, PDE4B1 (Homo sapiens, UniProt Q07343); test: Inhibitory activity of PDE4 enzyme (hydrolysis of cAMP), PDE4B1; assay type: biochemical; details: cAMP 5 μM, 37° C., 15 min to 30 min, AMP by HPLC-MS
T1 construct: purchased BPS bioscience 60041
Protocol: (§1) (1) The inhibitory actions of compounds on activity of hydrolyzing cAMP with PDE4 enzyme were assayed by the inhibitory activity of PDE4 enzyme. The procedures are described as follows.
(§2) Humanized PDE4A1A, PDE4B1 and PDE4D2 were purchased from BPS bioscience (catalogue Nos.: 60040, 60041 and 60043, respectively). The enzyme reactions were carried out in 10 mM Tris-HCl (pH 7.4) and 1 mM MgCl2. The concentration of cAMP was 5 μM. The reaction was maintained at 37° C. for 15 min to 30 min so that the consumption of the substrate was controlled within 20%. The reaction was quenched with equal volume of acetonitrile. The production amount of the […] AMP was measured by HPLC-MS. The inhibitory activity of compounds on PDE4 enzyme was obtained by comparing the production amounts of the AMP in the experimental groups having the compounds with those of the control groups having no compounds.

[1] = tested on: TNFα release by PBMCs stimulated by LPS; test: Inhibition of TNFα release by mononuclear cells (PBMCs) stimulated by LPS; assay type: cell-based; details: compound 1 hour before LPS, further 20 hours, TNFα in supernate by ELISA
Text: 1. Effects of Mononuclear Cells (PBMCs) Stimulated by LPS on TNFα
The research in respect of cytokine TNFα release by PBMCs in the human peripheral blood after stimulated by lipopolysaccharide (LPS) can be carried out in vitro. The research method for inhibiting cytokine TNFα release by PBMCs upon stimulation by LPS with the pharmaceutical active ingredients in the present application is described as follows.
PBMCs are obtained from heparin treated blood of at least three volunteer donors. The heparin treated blood of at least three volunteer donors was subject to gradient separation of the known method to obtain PBMCs. The PBMCs were collected and washed with 1640 medium (10% fetal bovine serum, 2 mM L-glutamine, […] mercaptoethanol, 50 μg/ml streptomycin and 50 U/ml penicillin) three times. The PBMCs was added into a 24-well plate and prepared with a concentration of 1×10^6 cell/ml with 1640 medium. A compound to be tested was dissolved in dimethylsulfoxide and prepared as a solution of the compound to be tested with a required concentration. The solution was added into the cell cultures. After incubated in a CO2 incubator (5% CO2, 90% humidity) for 1 hour, LPS (Sigma) was added until […] (except for the control).
After the medium was further incubated for 20 hours, the content of TNFα in the supernate of the PBMCs medium was measured by the standard method with commercial ELISA kit (U. S Genzyme Co). The inhibition ratio of TNFα was calculated by the measured value of control well without treated by active ingredients and the measured value of the test well using the test compound. The concentration of generating 50% inhibition of the TNFα release (IC50 value) was calculated with nonlinear regression analysis. Each concentration was measured twice simultaneously and an average value was calculated.

PDE2A = molecular target: T2, PDE2A (Homo sapiens, UniProt O00408); test: Inhibitory activity of PDE2 (selectivity of PDE enzyme); assay type: biochemical; details: cAMP 5 μM, 37° C., 30 min, AMP by HPLC-MS
T2 construct: purchased BPS bioscience 60020
T2 sequence (O00408 whole entry): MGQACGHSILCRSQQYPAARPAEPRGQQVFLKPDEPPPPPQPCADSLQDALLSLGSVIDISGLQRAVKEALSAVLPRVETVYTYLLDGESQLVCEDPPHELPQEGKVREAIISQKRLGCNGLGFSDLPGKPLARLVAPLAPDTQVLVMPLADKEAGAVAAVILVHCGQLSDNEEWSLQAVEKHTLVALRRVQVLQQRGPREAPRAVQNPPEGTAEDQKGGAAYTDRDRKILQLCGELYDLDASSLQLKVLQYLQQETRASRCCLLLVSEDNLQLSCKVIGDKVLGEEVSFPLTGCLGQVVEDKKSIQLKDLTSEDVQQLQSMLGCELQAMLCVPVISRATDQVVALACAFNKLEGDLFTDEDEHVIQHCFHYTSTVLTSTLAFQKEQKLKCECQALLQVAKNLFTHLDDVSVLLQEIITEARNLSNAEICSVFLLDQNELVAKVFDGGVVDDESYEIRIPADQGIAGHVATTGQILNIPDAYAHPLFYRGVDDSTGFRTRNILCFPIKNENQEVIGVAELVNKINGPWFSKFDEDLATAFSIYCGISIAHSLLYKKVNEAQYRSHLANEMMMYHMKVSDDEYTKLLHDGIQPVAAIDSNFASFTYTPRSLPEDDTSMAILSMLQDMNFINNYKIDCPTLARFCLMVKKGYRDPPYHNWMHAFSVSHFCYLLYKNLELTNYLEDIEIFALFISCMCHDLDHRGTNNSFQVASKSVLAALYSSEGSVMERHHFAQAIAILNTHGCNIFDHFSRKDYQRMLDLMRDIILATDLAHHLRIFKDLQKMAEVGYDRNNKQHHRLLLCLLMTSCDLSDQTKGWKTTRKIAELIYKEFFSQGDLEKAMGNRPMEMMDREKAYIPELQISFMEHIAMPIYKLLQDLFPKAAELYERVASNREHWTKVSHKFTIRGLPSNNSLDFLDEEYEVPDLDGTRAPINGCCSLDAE
Protocol: (2) Inhibitory Activity of PDE2 (Selectivity of PDE Enzyme):
as §2, with “PDE2A was” for “PDE4A1A, PDE4B1 and PDE4D2 were”, “No.: 60020).” for “Nos.: 60040, 60041 and 60043, respectively).”, “reaction was” for “reactions were”, “μM,” for “μM.”, “for” for “for 15 min to”, “PDE2” for “PDE4 enzyme”

PDE4D2 = molecular target: T3, PDE4D2 (Homo sapiens, UniProt Q08499); test: Inhibitory activity of PDE4 enzyme (hydrolysis of cAMP), PDE4D2; assay type: biochemical; details: cAMP 5 μM, 37° C., 15 min to 30 min, AMP by HPLC-MS
T3 construct: purchased BPS bioscience 60043
T3 sequence (Q08499 303-809): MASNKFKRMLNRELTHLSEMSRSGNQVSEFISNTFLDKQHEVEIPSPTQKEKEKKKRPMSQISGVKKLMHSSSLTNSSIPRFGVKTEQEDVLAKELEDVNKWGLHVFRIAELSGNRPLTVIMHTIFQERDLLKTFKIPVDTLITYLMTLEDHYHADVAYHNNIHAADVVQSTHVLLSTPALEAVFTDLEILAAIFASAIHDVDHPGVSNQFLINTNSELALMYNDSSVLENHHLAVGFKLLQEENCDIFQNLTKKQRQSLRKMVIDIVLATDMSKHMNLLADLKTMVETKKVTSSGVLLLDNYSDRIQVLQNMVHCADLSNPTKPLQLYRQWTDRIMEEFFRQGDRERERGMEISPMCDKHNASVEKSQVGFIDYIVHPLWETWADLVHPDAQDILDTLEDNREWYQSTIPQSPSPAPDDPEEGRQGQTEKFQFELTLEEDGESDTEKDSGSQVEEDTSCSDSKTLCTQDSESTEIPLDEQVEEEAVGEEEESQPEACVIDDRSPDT
Protocol: as §1, §2

PDE4A1A = molecular target: T4, PDE4A1A (Homo sapiens, UniProt P27815); test: Inhibitory activity of PDE4 enzyme (hydrolysis of cAMP), PDE4A1A; assay type: biochemical; details: cAMP 5 μM, 37° C., 15 min to 30 min, AMP by HPLC-MS
T4 construct: purchased BPS bioscience 60040
T4 sequence (P27815 1-647 isoform P27815-4): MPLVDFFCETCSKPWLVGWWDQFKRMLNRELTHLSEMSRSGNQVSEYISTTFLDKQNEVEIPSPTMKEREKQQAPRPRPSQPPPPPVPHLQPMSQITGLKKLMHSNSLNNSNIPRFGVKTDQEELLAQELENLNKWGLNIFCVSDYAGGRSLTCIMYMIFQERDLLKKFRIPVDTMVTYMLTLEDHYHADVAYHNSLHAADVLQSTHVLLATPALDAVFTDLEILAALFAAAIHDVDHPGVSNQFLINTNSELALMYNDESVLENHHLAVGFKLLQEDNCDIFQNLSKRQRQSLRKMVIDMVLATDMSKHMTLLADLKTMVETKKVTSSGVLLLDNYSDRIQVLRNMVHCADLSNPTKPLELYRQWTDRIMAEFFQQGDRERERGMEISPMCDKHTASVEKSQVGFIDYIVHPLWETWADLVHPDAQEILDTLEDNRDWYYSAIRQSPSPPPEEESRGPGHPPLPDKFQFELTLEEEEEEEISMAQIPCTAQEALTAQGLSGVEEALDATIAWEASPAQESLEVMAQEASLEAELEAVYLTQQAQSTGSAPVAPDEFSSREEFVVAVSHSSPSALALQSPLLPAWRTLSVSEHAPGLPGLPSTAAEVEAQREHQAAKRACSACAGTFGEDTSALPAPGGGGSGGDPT
Protocol: as §1, §2

T1 sequence (Q07343 whole entry): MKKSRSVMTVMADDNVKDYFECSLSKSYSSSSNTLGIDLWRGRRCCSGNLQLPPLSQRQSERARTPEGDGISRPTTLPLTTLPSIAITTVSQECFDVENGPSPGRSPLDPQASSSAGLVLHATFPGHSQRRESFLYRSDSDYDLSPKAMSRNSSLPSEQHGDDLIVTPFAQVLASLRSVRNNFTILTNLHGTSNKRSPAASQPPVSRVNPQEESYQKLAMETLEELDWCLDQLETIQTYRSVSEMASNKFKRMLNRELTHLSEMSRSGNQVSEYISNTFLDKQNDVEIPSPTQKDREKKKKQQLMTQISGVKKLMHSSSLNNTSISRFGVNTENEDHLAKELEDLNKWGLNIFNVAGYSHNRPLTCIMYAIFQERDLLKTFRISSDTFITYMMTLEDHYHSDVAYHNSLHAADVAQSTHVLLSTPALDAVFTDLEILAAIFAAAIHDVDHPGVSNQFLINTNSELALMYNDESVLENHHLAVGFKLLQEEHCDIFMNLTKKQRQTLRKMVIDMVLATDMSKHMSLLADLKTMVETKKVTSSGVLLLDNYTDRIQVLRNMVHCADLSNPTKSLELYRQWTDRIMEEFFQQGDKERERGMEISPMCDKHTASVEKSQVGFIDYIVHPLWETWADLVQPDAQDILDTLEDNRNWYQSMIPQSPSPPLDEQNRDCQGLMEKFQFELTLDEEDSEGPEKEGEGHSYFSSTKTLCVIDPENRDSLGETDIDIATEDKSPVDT

SMILES | IC50 (PDE4B1) | IC50 ([1]; Homo sapiens, PBMC) | IC50 (PDE2A) | IC50 (PDE4D2) | IC50 ([1]; human PBMCs) | IC50 (PDE4A1A)
CCOc1cc(C(CS(C)(=O)=O)N2C(=O)c3csc(NC(=O)CCl)c3C2=O)ccc1OC (stereo not shown) [Example 18, 2-chloro-N-(5-(1-(3-ethoxy-4-methoxyphenyl)-2-(methylsulfonyl)ethyl)-4,6-diketone-5,6-dihydro-4H-thiophene[3,4-c]pyrrole-1-yl)acetamide] | 0.618 µM | 0.216 µM | – | – | – | –
CCOc1cc(C(CS(C)(=O)=O)N2C(=O)c3csc(NS(C)(=O)=O)c3C2=O)ccc1OC (stereo not shown) [Example 19, N-(5-(1-(3-ethoxy-4-methoxyphenyl)-2-(methylsulfonyl)ethyl)-4,6-diketone-5,6-dihydro-4H-thiophene[3,4-c]pyrrole-1-yl)methanesulfonamide] | 0.167 µM | 0.288 µM | – | – | – | –
CCOc1cc([C@@H](CS(C)(=O)=O)N2C(=O)c3csc(NC(C)=O)c3C2=O)ccc1OC [Example 24, (S)—N-(5-(1-(3-ethoxy-4-methoxyphenyl)-2-(methylsulfonyl)ethyl)-4,6-dioxo-5,6-dihydro-4H-thiophene[3,4-c]pyrrole-1-yl)acetamide] | 0.178 µM | – | > 50 µM | 0.114 µM | 0.065 µM | 0.104 µM
CCOc1cc(C(CS(C)(=O)=O)N2C(=O)c3cscc3C2=O)ccc1OC (stereo not shown) [Example 4, 5-(1-(3-ethoxy-4-methoxyphenyl)-2-(methylsulfonyl)ethyl)-5H-thiophene[3,4-c]pyrrole-4,6-diketone] | 1.2 µM | 0.886 µM | – | 0.329 µM | – | 0.366 µM
CCOc1cc([C@H](CS(C)(=O)=O)N2C(=O)c3cscc3C2=O)ccc1OC [Example 6, (R)-5-(1-(3-ethoxy-4-methoxyphenyl)-2-(methylsulfonyl)ethyl)-5H-thiophene[3,4-c]pyrrole-4,6-diketone] | 2.3 µM | 2.5 µM | – | 0.315 µM | – | –
CCOc1ccc(C(CS(C)(=O)=O)N2C(=O)c3csc(NC(C)=O)c3C2=O)cc1OC (stereo not shown) [Example 26, N-(5-(1-(3-methoxy-4-ethoxyphenyl)-2-(methylsulfonyl)ethyl)-4,6-dioxo-5,6-dihydro-4H-thiophene[3,4-c]pyrrole-1-yl)acetamide] | – | – | – | – | > 10 µM | –
CCOc1cc(C(CS(C)(=O)=O)N2C(=O)c3csc(N)c3C2=O)ccc1OC (stereo not shown) [Example 2, 5-(1-(3-ethoxy-4-methoxyphenyl)-2-(methylsulfonyl)ethyl)-1-amino-5H-thiophene[3,4-c]pyrrole-4,6-diketone] | 0.212 µM | 0.524 µM | – | 1.9 µM | – | –
COc1ccc(C(CS(C)(=O)=O)N2C(=O)c3cscc3C2=O)cc1OCc1ccccc1 (stereo not shown) [Example 9, 5-(1-(3-phenylmethoxy-4-methoxyphenyl)-2-(methylsulfonyl)ethyl)-5H-thiophene[3,4-c]pyrrole-4,6-diketone] | 5.3 µM | 7.5 µM | – | 0.831 µM | – | –
CCOc1cc(C(CS(C)(=O)=O)N2C(=O)c3csc(NC(C)=O)c3C2=O)ccc1OC (stereo not shown) [Example 3, N-(5-(1-(3-ethoxy-4-methoxyphenyl)-2-(methylsulfonyl)ethyl)-4,6-dioxo-5,6-dihydro-4H-thiophene[3,4-c]pyrrole-1-yl)acetamide] | 0.256 µM | – | 36 µM | 0.224 µM | 0.296 µM | 0.208 µM
COc1ccc(C(CS(C)(=O)=O)N2C(=O)c3csc(NC(C)=O)c3C2=O)cc1OCc1ccccc1 (stereo not shown) [Example 12, N-(5-(1-(3-phenylmethoxy-4-methoxyphenyl)-2-(methylsulfonyl)ethyl)-4,6-dioxo-5,6-dihydro-4H-thiophene[3,4-c]pyrrole-1-yl)acetamide] | 1.2 µM | > 10 µM | – | – | – | –
CCOc1cc([C@@H](CS(C)(=O)=O)N2C(=O)c3csc(N)c3C2=O)ccc1OC [Example 21, (S)-1-amino-5-(1-(3-ethoxy-4-methoxyphenyl)-2-(methylsulfonyl)ethyl)-5H-thiophene[3,4-c]pyrrole-4,6-diketone] | – | – | – | – | 0.142 µM | –
CCOc1cc([C@@H](CS(C)(=O)=O)N2C(=O)c3csc([N+](=O)[O-])c3C2=O)ccc1OC [Example 20, (S)-1-nitro-5-(1-(3-ethoxy-4-methoxyphenyl)-2-(methylsulfonyl)ethyl)-5H-thiophene[3,4-c]pyrrole-4,6-diketone] | 0.026 µM | – | – | – | – | –
CCOc1cc([C@H](CS(C)(=O)=O)N2C(=O)c3csc(NC(C)=O)c3C2=O)ccc1OC [Example 25, (R)—N-(5-(1-(3-ethoxy-4-methoxyphenyl)-2-(methylsulfonyl)ethyl)-4,6-dioxo-5,6-dihydro-4H-thiophene[3,4-c]pyrrole-1-yl)acetamide] | – | – | – | – | 1.19 µM | –
CCOc1cc([C@@H](CS(C)(=O)=O)N2C(=O)c3cscc3C2=O)ccc1OC [Example 5, (S)-5-(1-(3-ethoxy-4-methoxyphenyl)-2-(methylsulfonyl)ethyl)-5H-thiophene[3,4-c]pyrrole-4,6-diketone] | 0.368 µM | 0.376 µM | – | – | – | –
CCOc1cc([C@H](CS(C)(=O)=O)N2C(=O)c3csc(N)c3C2=O)ccc1OC [Example 23, (R)-1-amino-5-(1-(3-ethoxy-4-methoxyphenyl)-2-(methylsulfonyl)ethyl)-5H-thiophene[3,4-c]pyrrole-4,6-diketone] | 0.718 µM | 1.9 µM | – | 0.055 µM | – | –
COc1ccc(C(CS(C)(=O)=O)N2C(=O)c3csc(N)c3C2=O)cc1OCc1ccccc1 (stereo not shown) [Example 11, 5-(1-(3-phenylmethoxy-4-methoxyphenyl)-2-(methylsulfonyl)ethyl)-1-amino-5H-thiophene[3,4-c]pyrrole-4,6-diketone] | 1 µM | > 10 µM | – | – | – | –
